These results are taken from patent publication US20240383874A1, “BENZENE RING DERIVATIVE, AND COMPOSITION AND PHARMACEUTICAL USE THEREOF” (Xizang Haisco Pharmaceutical Co., Ltd., priority 2020, published 2024).

Where a name gives a salt, the structure may show the parent alone.

The subject of data set [1] is 22RV1 cells. The data set can be described thus: Experiment 2 on inhibiting 22RV1 cell proliferation (7 days, CellTiter-Glo). The data set is classed as cell-based. The note with it: 1% css-FBS phenol red-free medium, incubated with compound 7 days, read-out: IC50 values on proliferation inhibition of 22RV1 cells. The method, boiled down:
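Survival measured by CellTiter-Glo after 7 days of compound exposure, normalised to DMSO controls, with IC50 fitted by dose-response. Cells (22RV1, 2000/well) were seeded overnight in 1% css-FBS phenol red-free medium before dosing.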
A general note: In ATP-based viability assays light output follows the ATP content of the culture.

A short description of data set [2]: Pharmacokinetic test in rats. The note with it: rat, po; male SD rats, single dose i.g. 5 mg/kg, plasma, 0-24 h. Format: in vivo. The protocol: Test objective: in this test, a single dose of test compounds was administered to SD rats intragastrically, and the concentrations of the test compounds in plasma of the rats were measured to evaluate pharmacokinetic characteristics of the test compounds in the rats.
Test animals: male SD rats, 200-250 g, 6-8 weeks old, 3 rats/compound, purchased from Chengdu Dossy Experimental Animals Co., Ltd.
Test method: on the day of the test, 3 SD rats were randomly grouped according to their body weights. The animals were fasted with water available for 12 to 14 hours one day before the administration of a test compound, and were fed 4 hours after the administration.
Sampling: before and after the administration, 0.1 mL of blood was taken from the orbits of the rats under isoflurane anesthesia, and placed in an EDTAK2 centrifuge tube. Centrifugation was carried out at 5000 rpm at 4C for […], and the plasma was collected.
Time points for plasma collection in G1 group: 0, 5 min, 15 min, 30 min, 1 h, 2 h, 4 h, 6 h, 8 h, and 24 h.
Before analysis and detection, all samples were stored at −80° C. The samples were analyzed quantitatively by LC-MS/MS.

Data set [3] relates to AR splice variants (AR-Vs). The data set is described as follows: Degradation experiment on AR splice variants (AR-Vs) in 22RV1 cells. Format: cell-based. The note with it: 24 h; for AR-Vs Dmax % (maximum degradation rate): relative to vehicle control. The protocol:
(§1) Prostate cancer cells 22RV1 were purchased from ATCC, the cell medium was 1640+10% FBS, and the cells were cultured in an incubator at 37° C. under 5% CO2. On day 1, the cells in an exponential phase were collected. With a 1% css-FBS phenol red-free medium, the cell suspension was adjusted to a corresponding concentration and plated into a 6-well plate at 1 mL/well and 100000 cells/well. The next day, a 1% css-FBS phenol-free medium containing the compound to be tested was added, a 1% css-FBS phenol-free medium containing 0.2% DMSO was added to one well as DMSO vehicle control, and the 6-well plate was cultured in an incubator at 37° C. under 5% CO2. After 24 h, the cells were digested with pancreatin and collected into a 1.5 mL centrifuge tube. 15 μL of RIPA lysate (containing 1×protease inhibitor cocktail) was added to each well, and the cells were lysed on ice for 15 min and then centrifuged at 12000 g and 4° C. for 10 min. The supernatant protein samples were collected, and protein quantification was performed by a BCA method. AR-FL and AR-Vs were detected using fully automatic protein expression quantitative analysis, which involved diluting the protein to be tested to 1 mg/mL. 4 μL of the diluted protein samples were added to 1 μL of 5×Master Mix (provided in the kit), and the prepared samples were denatured at 95° C. for 5 min and placed on ice for use. The primary antibodies, AR (CST, 5153S) and β-actin (CST, 3700), were diluted with Antibody Diluent II (provided in the kit) at a dilution ratio of 1:20 and 1:200, respectively. The secondary antibody was a mixed goat anti-mouse and goat anti-rabbit secondary antibody in a ratio of 1:1, and the color development solution was a mixed solution of Lumino-S and Peroxide in a ratio of 1:1. The prepared reagents were successively added to an assay plate according to instructions of the kit and detected on an instrument. Western blot band processing was performed using “Compass for SW”, a fully automatic protein expression quantitative analysis software, in which western blot bands were automatically simulated based on signal values. The degradation rate of AR-FL (3) or AR-Vs (4) relative to vehicle control at different compound concentrations was calculated according to formulas (3) and (4), wherein AR-FLcompound was the relative peak area of AR-FL in the treated group, and AR-FLsolvent was the relative peak area of AR-FL in the vehicle control group; AR-Vscompound was the relative peak area of AR-Vs in the treated group, and AR-Vssolvent was the relative peak area of AR-Vs in the vehicle control group.
(§2) DC50 calculation: the compound concentration DC50 values at which the degradation rate of AR-FL or AR-Vs was 50% were calculated using OriginPro2015 software and analyzed using DoseResp function according to formula (3) or (4).

The subject of data set [4] is full-length AR (AR-FL). The data set can be described thus: Degradation experiment on full-length AR (AR-FL) in 22RV1 cells. Format: cell-based. The note with it: 24 h; for AR-FL Dmax % (maximum degradation rate): relative to vehicle control. As to the method: as §1, §2
Data set [5] relates to 22RV1 cells. The data set is described as follows: Experiment 1 on inhibiting 22RV1 cell proliferation (5 days, CellTiter-Glo). Format: cell-based. The settings on record: 1% css-FBS phenol red-free medium, incubated with compound 5 days, read-out: IC50 values on proliferation inhibition of 22RV1 cells. The protocol:
Prostate cancer cells 22RV1 were purchased from ATCC, the cell medium was RPMI 1640+10% FBS, and the cells were cultured in an incubator at 37° C. under 5% CO2. On day 1, the cells in an exponential phase were collected. With a 1% css-FBS phenol red-free medium, the cell suspension was adjusted to a corresponding concentration, plated at 2000 cells/well and incubated overnight. On day 2, compounds at different concentrations were added, and the plate was placed in the incubator and incubated for further 5 days. After the incubation was completed, according to operation instructions for a CellTiter-Glo kit (Promega, G7573), 50 μL of CTG solution, which was already pre-melted and equilibrated to room temperature, was added to each well, and the mixtures were uniformly mixed for 2 min using a microplate shaker. The plate was placed at room temperature for 10 min, and then fluorescence signal values were measured using a microplate reader (PHERAstar FSX). The results were processed according to formula (1), the survival rate of the compound at different concentrations was calculated, and the IC50 value of the compound with a survival rate of 50% was calculated using origin9.2 software with DoseResp function, wherein RLUcompound was the readout of the treated group, and RLUcontrol was the average value of the DMSO vehicle control group.

[6] abbreviates: degradation rate 50% relative to vehicle control.

For the molecule `COc1c(Cl)cc(C(C)(C)c2ccc(OCc3ccnc(N4CCC(CN5CCC(C6CCN(c7ccc8c(c7)n(C)c(=O)n8C7CCC(=O)NC7=O)CC6)CC5)CC4)n3)cc2)cc1C#N` (centres unmarked) [Compound 97 trifluoroacetate, 3-chloro-5-(2-(4-((2-(4-((1′-(1-(2,6-dioxopiperidin-3-yl)-3-methyl-2-oxo-2,3-dihydro-1H-benzo[d]imidazol-5-yl)-[4,4′-bipiperidin]-1-yl)methyl)piperidin-1-yl)pyrimidin-4-yl)methoxy)phenyl)propan-2-yl)-2-methoxybenzonitrile (Compound 97) trifluoroacetate], in data set [1] (Homo sapiens, 22Rv1, 168 h), the IC50 worked out at 421 nM. The molecule further yielded an exposure AUC(0-t) in data set [2] of 658 ± 133 ng·h/mL. For the same molecule, the 50% degradation concentration (DC50) came out at 1070 nM in data set [3] (setting [6]) and 1180 nM in data set [4] (setting [6]).

As to `O=C1CCC(N2C(=O)c3ccc(N4CCN(CC5CCN(S(=O)(=O)Nc6ccc(Cl)cc6C(=O)Nc6ccc(C(F)(F)F)cc6Cl)CC5)CC4)cc3C2=O)C(=O)N1` (centres unmarked) [Compound 1, 5-chloro-N-(2-chloro-4-(trifluoromethyl)phenyl)-2-{[(4-[(4-(2-(2,6-dioxopiperidin-3-yl)-1,3-dioxo-2,3-dihydro-1H-isoindol-5-yl)piperazin-1-yl)methyl]piperidin-1-yl)sulfonyl]amino}benzamide], the IC50 in data set [5] was 835 nM; in data set [5] (Homo sapiens, 22Rv1, 120 h), 500 to 1500 nM.

In the case of `CCOc1c(Cl)cc(C(C)(C)c2ccc(OCc3ccnc(N4CCN(C5CCN(C6CN(Cc7cccc8c7n(C)c(=O)n8C7CCC(=O)NC7=O)C6)CC5)CC4)n3)cc2)cc1C#N` (centres unmarked) [Compound 18, 3-chloro-5-(2-(4-((2-(4-(1-(1-((1-(2,6-dioxopiperidin-3-yl)-3-methyl-2-oxo-2,3-dihydro-1H-benzo[d]imidazol-4-yl)methyl)azetidin-3-yl)piperidin-4-yl)piperazin-1-yl)pyrimidin-4-yl)methoxy)phenyl)propan-2-yl)-2-ethoxybenzonitrile], the IC50 in data set [1] was 452 nM. Also, the “AR-Vs Dmax % (maximum degradation rate)” value in data set [3] was 91%. For the same molecule, the “AR-FL Dmax % (maximum degradation rate)” value in data set [4] is 53%.

Take `COc1c(Cl)cc(C(C)(C)c2ccc(OCc3ccnc(N4CCC(CN5CCC(N6CCC(c7ccc8c(c7)n(C)c(=O)n8C7CCC(=O)NC7=O)CC6)CC5)CC4)n3)cc2)cc1C#N` (centres unmarked) [Compound 116 trifluoroacetate, 3-chloro-5-(2-(4-((2-(4-((4-(1-(2,6-dioxopiperidin-3-yl)-3-methyl-2-oxo-2,3-dihydro-1H-benzo[d]imidazol-5-yl)-[1,4′-bipiperidin]-1′-yl)methyl)piperidin-1-yl)pyrimidin-4-yl)methoxy)phenyl)propan-2-yl)-2-methoxybenzonitrile]: the IC50 in data set [1] (Homo sapiens, 22Rv1, 168 h) stood at 821 nM. For the same molecule, the “AR-Vs Dmax % (maximum degradation rate)” value in data set [3] came to 67%. Besides, the “AR-FL Dmax % (maximum degradation rate)” value in data set [4] is 77%.

Regarding `O=C1CCC(N2C(=O)c3ccc(N4CC(N5CCN(S(=O)(=O)Nc6ccc(Cl)cc6-c6nc7cc(C(F)(F)F)cc(Cl)c7[nH]6)CC5)C4)cc3C2=O)C(=O)N1` (centres unmarked) [Compound 2, N-(4-chloro-2-(7-chloro-5-(trifluoromethyl)-1H-1,3-benzodiazol-2-yl)phenyl)-4-(1-(2-(2,6-dioxopiperidin-3-yl)-1,3-dioxo-2,3-dihydro-1H-isoindol-5-yl)azetidin-3-yl)piperazine-1-sulfonamide], the IC50 in data set [5] is 594 nM; in data set [5] (Homo sapiens, 22Rv1, 120 h), 500 to 1500 nM.

Take `CCOc1c(Cl)cc(C(C)(C)c2ccc(OCc3ccnc(N4CCC(CN5CCC(C6CCN(c7ccc8c(c7)n(C)c(=O)n8C7CCC(=O)NC7=O)CC6)CC5)CC4)n3)cc2)cc1C#N` (centres unmarked) [Compound 94 trifluoroacetate, 3-chloro-5-(2-(4-((2-(4-((1′-(1-(2,6-dioxopiperidin-3-yl)-3-methyl-2-oxo-2,3-dihydro-1H-benzo[d]imidazol-5-yl)-[4,4′-bipiperidin]-1-yl)methyl)piperidin-1-yl)pyrimidin-4-yl)methoxy)phenyl)propan-2-yl)-2-ethoxybenzonitrile]: the IC50 in data set [1] (Homo sapiens, 22Rv1, 168 h) amounted to 678 nM. Further, the AUC(0-t) in data set [2] turned out to be 1700 ± 335 ng·h/mL. For the same molecule, in data set [3], the “AR-Vs Dmax % (maximum degradation rate)” value worked out at 83%. In data set [4], the “AR-FL Dmax % (maximum degradation rate)” value is recorded as 84%.

Turning to `O=C1CCC(N2C(=O)c3ccc(N4CCC(CN5CCN(S(=O)(=O)Nc6ccc(Cl)cc6C(=O)Nc6ccc(C(F)(F)F)cc6Cl)CC5)CC4)cc3C2=O)C(=O)N1` (centres unmarked) [Compound 3, 5-chloro-N-(2-chloro-4-(trifluoromethyl)phenyl)-2-((4-((1-(2-(2,6-dioxopiperidin-3-yl)-1,3-dioxoisoindolin-5-yl)piperidin-4-yl)methyl)piperazine)-1-sulfonamido)benzamide], the IC50 in data set [5] was determined as 1240 nM.

Turning to `Cn1c(=O)n(C2CCC(=O)NC2=O)c2ccc(N3CCC(C4CCN(CC5CCN(c6nccc(COc7ccc(C(C)(C)c8cc(Cl)cc(C#N)c8)cc7)n6)CC5)CC4)CC3)cc21` (centres unmarked) [Compound 88 trifluoroacetate, 3-chloro-5-(2-(4-((2-(4-((1′-(1-(2,6-dioxopiperidin-3-yl)-3-methyl-2-oxo-2,3-dihydro-1H-benzo[d]imidazol-5-yl)-[4,4′-bipiperidin]-1-yl)methyl)piperidin-1-yl)pyrimidin-4-yl)methoxy)phenyl)propan-2-yl)benzonitrile], the IC50 in data set [1] (Homo sapiens, 22Rv1, 168 h) came out at 899 nM. Moreover, in data set [2], the AUC(0-t) worked out at 740 ± 362 ng·h/mL. For the same molecule, the “AR-Vs Dmax % (maximum degradation rate)” value in data set [3] turned out to be 73%. The “AR-FL Dmax % (maximum degradation rate)” value in data set [4] is 64%.

One may read the AUC(0-t) as exposure summed from dosing to a finite time, without extrapolation to infinity. Lower therefore signals less exposure. What is called DC50 is the concentration at which degradation of the target reaches its halfway point.
